Holding throughout (assay): drug sensitivity score (DSS) (DSS score); higher = more sensitive (stronger growth inhibition); extreme values may be limits of the assay
Test [1] has as its system Ba/F3 P210-BCR-ABL1 RUNX1-/- (mouse). In outline: (§1)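 Mouse Ba/F3 cells carrying P210-BCR-ABL1, CRISPR/Cas9-edited at runx1 exon 4 or edited-control clones, were screened against a 528-compound library on pre-printed 384-well plates. Each compound ran at five concentrations spanning a 10,000-fold range, with 10,000 cells per well in RPMI with 10% FBS for 72 h at 37 °C and 5% CO2. CellTiter-Glo luminescence was scaled between vehicle and positive-control wells. A drug sensitivity score summarised each dose-response, averaged over two replicates.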

Test [2] concerns Ba/F3 P210-BCR-ABL1 RUNX1wt/wt control (mouse). In outline: as §1
Test [3] relates to Ba/F3 P210-BCR-ABL1 RUNX1-/mut (mouse). In outline:
as §1

30 compounds from the supplement of paper PMC8024199 can be followed below.

± gives the standard deviation of the averaged measurements.

For the compound `Cc1sc2c(c1C)C(c1ccc(Cl)cc1)=N[C@@H](CC(=O)Nc1ccc(O)cc1)c1nnc(C)n1-2` [Birabresib], the results for the drug sensitivity score in test [1], in test [2] and in test [3] were 24.1 ± 1.3, 15.2 ± 0.49 and 24.6 ± 3, respectively.

For `CC[C@H](NC(=O)[C@H](C)NC)C(=O)N1C[C@@H](O)C[C@H]1Cc1c(-c2[nH]c3cc(F)ccc3c2C[C@@H]2C[C@H](O)CN2C(=O)[C@H](CC)NC(=O)[C@H](C)NC)[nH]c2cc(F)ccc12` [Birinapant], the drug sensitivity score in test [1] was 14 ± 5.5; in test [2], 6.15 ± 0.071; in test [3], 4.15 ± 5.2.

Regarding `COc1cc(N2CCC(N3CCN(C)CC3)CC2)ccc1Nc1ncc(Cl)c(Nc2ccccc2P(C)(C)=O)n1` [Brigatinib], the figures for the drug sensitivity score in test [1], in test [2] and in test [3] were 4.95 ± 0.35, 0.1 ± 0.14 and 2.55 ± 3.6, respectively.

On to `Cc1cc2c(F)c(Oc3ncnn4cc(OC[C@@H](C)O)c(C)c34)ccc2[nH]1` [Brivanib], for which the drug sensitivity score in test [1], in test [2] and in test [3] was 0 in each case.

For `Nc1cc(C(F)(F)F)c(-c2cc(N3CCOCC3)nc(N3CCOCC3)n2)cn1` [Buparlisib], the drug sensitivity score in test [1] was 8.6 ± 0.42; in test [2], 4.5 ± 0.57; in test [3] it was 8.7 ± 2.3.

Turning to `Cc1nc2cccc(N)c2c(=O)n1C1CCC(=O)NC1=O` (stereo not given) [CC122], the drug sensitivity score in test [1], in test [2] and in test [3] was 0 each time.

Take `CCN1C(=O)CNc2ncc(-c3ccc(-c4nc[nH]n4)nc3C)nc21` [CC-115]: the results for the drug sensitivity score in test [1], in test [2] and in test [3] were 12.6 ± 2.9, 7.65 ± 0.21 and 12.8 ± 1.9, respectively.

In the case of `CO[C@H]1CC[C@H](N2C(=O)CNc3ncc(-c4ccc(C(C)(C)O)nc4)nc32)CC1` [CC-223], the drug sensitivity score was 7.25 ± 0.64 in test [1], 2.45 ± 0.071 in test [2] and 6.65 ± 2.2 in test [3].

In the case of `COc1cc(C)[nH]c(=O)c1CNC(=O)c1c(C)n([C@H](C)C2CCOCC2)c2ccccc12` [CPI-360], the drug sensitivity score in test [1], in test [2] and in test [3] was 0 throughout.

Take `Cc1noc2c1-c1ccccc1C(c1ccc(Cl)cc1)=N[C@H]2CC(N)=O` [CPI-0610]: the results for the drug sensitivity score in test [1], in test [2] and in test [3] were 19.6 ± 1.1, 14 ± 0.28 and 19.1 ± 4.6, respectively.

With `O=C(O)CCCCC(CCSCc1ccccc1)SCc1ccccc1` (stereo not given) [CPI-613], the drug sensitivity score in test [1], in test [2] and in test [3] was 0 each time.

Take `CN(C)c1cc2c(cc1Sc1nc3c(N)nccc3n1CCNCC(C)(C)C)OCO2` [CUDC-305]: the values for the drug sensitivity score in test [1], in test [2] and in test [3] were 18.3 ± 1.6, 17.1 ± 0.21 and 16.9 ± 0.21, respectively.

Turning to `COc1ccc(-c2nc(N3CCOCC3)c3sc(CN(C)c4ncc(C(=O)NO)cn4)cc3n2)cn1` [CUDC-907], the results for the drug sensitivity score in test [1], in test [2] and in test [3] were 40.9 ± 0.85, 39 ± 0.57 and 43.65 ± 0.35, respectively.

Take `CO[C@H]1C(=O)[C@]2(C)[C@@H](OC)C[C@H]3OC[C@@]3(OC(C)=O)[C@H]2[C@H](OC(=O)c2ccccc2)[C@]2(O)C[C@H](OC(=O)[C@H](O)[C@@H](NC(=O)OC(C)(C)C)c3ccccc3)C(C)=C1C2(C)C` [Cabazitaxel]: the drug sensitivity score in test [1] is 35.9 ± 1.4; in test [2] it was 13.55 ± 0.071; in test [3], 26.2 ± 3.5.

Regarding `COc1cc2nccc(Oc3ccc(NC(=O)C4(C(=O)Nc5ccc(F)cc5)CC4)cc3)c2cc1OC` [Cabozantinib], the drug sensitivity score in test [1] was determined as 4.8 ± 0.85; in test [2], 0; in test [3], 1.8 ± 1.6.

Regarding `CNC(=O)c1ccc(-c2cnc3ncc(Cc4ccc5ncccc5c4)n3n2)cc1F` [Capmatinib], the values for the drug sensitivity score in test [1], in test [2] and in test [3] were 0.2 ± 0.28, 0.25 ± 0.35 and 0, respectively.

With `O=C(O)C1(C(=O)O)CCC1.[NH2-].[NH2-].[Pt+2]` [Carboplatin], the drug sensitivity score came out at 6.65 ± 1.8 in test [1], 3.45 ± 0.21 in test [2] and 6.9 ± 1.8 in test [3].

In the case of `COc1cc2c(Oc3ccc4[nH]c(C)cc4c3F)ncnc2cc1OCCCN1CCCC1` [Cediranib], the drug sensitivity score in test [1], in test [2] and in test [3] was 0 in each case.

In the case of `CCS(=O)(=O)N1CCN(c2ccc(Nc3ncc(C(N)=O)c(NC4CC4)n3)cc2)CC1` [Cerdulatinib], the drug sensitivity score in test [1] is 14.8 ± 0.64; in test [2], 9.5 ± 0.42; in test [3] it was 13.1 ± 1.6.

Consider `Cc1cc(Nc2ncc(Cl)c(Nc3ccccc3S(=O)(=O)C(C)C)n2)c(OC(C)C)cc1C1CCNCC1` [Ceritinib], for which the drug sensitivity score turned out to be 0.8 ± 1.1 in test [1], 1.35 ± 0.78 in test [2] and 0.75 ± 1.1 in test [3].

In the case of `CCN(CC)CCCC(C)Nc1ccnc2cc(Cl)ccc12` (stereo not given) [Chloroquine], the drug sensitivity score in test [1] is 13.2 ± 5.2; in test [2], 5.8 ± 0.28; in test [3], 14.9 ± 5.6.

For the compound `CC(C)[C@H]1C(=O)N[C@@H](CCCNC(=N)N)C(=O)NCC(=O)N[C@@H](CC(=O)O)C(=O)N[C@H](Cc2ccccc2)C(=O)N1C` [Cilengitide], the drug sensitivity score in test [1], in test [2] and in test [3] was 0 throughout.

For `N.N.[Cl][Pt][Cl]` [Cisplatin], the drug sensitivity score in test [1] was found to be 6.3 ± 1.4; in test [2], 5.5 ± 0.14; in test [3] it was 7 ± 1.6.

Consider `CCN(CC)CCOc1ccc(C(=C(Cl)c2ccccc2)c2ccccc2)cc1` [Clomifene], for which the figures for the drug sensitivity score in test [1], in test [2] and in test [3] were 6.5 ± 0.28, 6.35 ± 0.49 and 8 ± 1.3, respectively.

As for `O=C(c1ccc(F)c(F)c1Nc1ccc(I)cc1F)N1CC(O)([C@@H]2CCCCN2)C1` [Cobimetinib], the drug sensitivity score turned out to be 9.05 ± 0.78 in test [1], 0 in test [2] and 4.6 ± 1.8 in test [3].

Consider `COc1c(OCCCN2CCOCC2)ccc2c1N=C(NC(=O)c1cnc(N)nc1)N1CCN=C21` [Copanlisib], for which the drug sensitivity score in test [1] was determined as 8.65 ± 1.5; in test [2] it was 1.4 ± 0.99; in test [3], 6.1 ± 3.4.

On to `CC1(COc2ccc3c(c2)ncn3-c2ccc3cccc(N4CCC(N)CC4)c3n2)COC1` [Crenolanib], for which the drug sensitivity score was determined as 12.8 ± 0.49 in test [1], 6.25 ± 0.49 in test [2] and 10.9 ± 1.5 in test [3].

On to `Nc1ccn([C@@H]2O[C@H](CO)[C@@H](O)[C@@H]2O)c(=O)n1` [Cytarabine], for which the drug sensitivity score is 12.25 ± 0.071 in test [1], 6.25 ± 0.071 in test [2] and 8.25 ± 4 in test [3].

For the compound `CC(C)(C)c1nc(-c2cccc(NS(=O)(=O)c3c(F)cccc3F)c2F)c(-c2ccnc(N)n2)s1` [Dabrafenib], the results for the drug sensitivity score in test [1], in test [2] and in test [3] were 2.6 ± 0.85, 2.2 ± 0.42 and 0.05 ± 0.071, respectively.

On to `COc1cc2ncnc(Nc3ccc(F)c(Cl)c3)c2cc1NC(=O)/C=C/CN1CCCCC1` [Dacomitinib], for which the drug sensitivity score in test [1] was 1.05 ± 1.5; in test [2], 0.25 ± 0.35; in test [3] it was 1.8 ± 2.3.
